In patent US7189720B2 (H. Lundbeck A/S, priority 1999, dated 2007):
Where two headings read alike, the source gives them in different places.

Tests used:
human Y1 receptor = molecular target: T1, human Y1 receptor (Homo sapiens, UniProt P25929); assay: Radioligand binding to membranes, cloned human Y1 receptor; details: hNPY-1 (one cell for Y1, Y2, Y4), read-out: Ki, nM hNPY-1,2,4
T1 construct: expressed in transfected cells; host or cells: human embryonic kidney 293 cells, e.g. 293-hY1-5 (ATCC CRL-12121)
T1 sequence (P25929 1-384): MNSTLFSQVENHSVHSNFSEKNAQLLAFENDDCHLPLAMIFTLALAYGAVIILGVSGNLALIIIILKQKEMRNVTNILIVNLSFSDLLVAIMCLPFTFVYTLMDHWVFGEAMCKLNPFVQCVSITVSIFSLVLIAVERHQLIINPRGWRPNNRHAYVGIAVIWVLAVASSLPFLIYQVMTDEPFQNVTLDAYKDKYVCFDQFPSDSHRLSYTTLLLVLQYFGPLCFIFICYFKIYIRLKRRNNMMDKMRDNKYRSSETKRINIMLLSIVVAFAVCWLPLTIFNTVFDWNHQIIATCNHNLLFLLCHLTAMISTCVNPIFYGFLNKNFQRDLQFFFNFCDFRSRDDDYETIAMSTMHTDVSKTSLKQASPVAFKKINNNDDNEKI
Method: (§1) Binding of the compounds of the present invention to human Y1, Y2, Y4, and Y5 receptors was evaluated using stably transfected 293 or LM(tk-) cells as described above.
(§2) Membranes were harvested from COS-7 cells 48 hours after transient transfection. Adherent cells were washed twice in ice-cold phosphate buffered saline (138 mM NaCl, 8.1 mM Na2HPO4, 2.5 mM KCl, 1.2 mM KH2PO4, 0.9 mM CaCl2, 0.5 mM MgCl2, pH 7.4) and lysed by sonication in ice-cold sonication buffer (20 mM Tris-HCl, 5 mM EDTA, pH 7.7). Large particles and debris were cleared by low speed centrifugation (200×g, 5 min, 4° C.). Membranes were collected from the supernatant fraction by centrifugation (32,000×g, 18 min, 4° C.), washed with ice-cold hypotonic buffer, and collected again by centrifugation (32,000×g, 18 min, 4° C.). The final membrane pellet was resuspended by sonication into a small volume of ice-cold binding buffer (˜1 ml for every 5 plates: 10 mM NaCl, 20 mM HEPES, 0.22 mM KH2PO4, 1.26 mM CaCl2, 0.81 mM MgSO4, pH 7.4). Protein concentration was measured by the Bradford method (Bradford, 1976) using Bio-Rad Reagent, with bovine serum albumin as a standard. Membranes were held on ice for up to one hour and used fresh, or flash-frozen and stored in liquid nitrogen.
(§3) Membranes were prepared similarly from 293, LM(tk-), and NIH-3T3 cells.
(§4) Membrane suspensions were diluted in binding buffer supplemented with 0.1% bovine serum albumin to yield an optimal membrane protein concentration so that ^125I-PYY (or alternative radioligand such as ^125I-NPY, ^125I-NYY3-36, or ^125I-[Leu^31Pro^34]PYY) bound by membranes in the assay was less than 10% of ^125I-PYY (or alternative radioligand) delivered to the sample (100,000 dpm/sample=0.08 nM for competition binding assays). ^125I-PYY (or alternative radioligand) and peptide competitors were also diluted to desired concentrations in supplemented binding buffer. Individual samples were then prepared in 96-well polypropylene microtiter plates by mixing ^125I-PYY (25 μL) (or alternative radioligand), competing peptides or supplemented binding buffer (25 μL), and finally, membrane suspensions (200 μL). Samples were incubated in a 30° C. water bath with constant shaking for 120 min. Incubations were terminated by filtration over Whatman GF/C filters (pre-coated with 1% polyethyleneimine and air-dried before use), followed by washing with 5 mL of ice-cold binding buffer. Filter-trapped membranes were impregnated with MeltiLex solid scintillant (Wallac, Turku, Finland) and counted for ^125I in a Wallac Beta-Plate Reader. Alternatively, incubations were carried out in GF/C filter plates (pre-coated with 1% polyethyleneimine and air-dried before use), followed by vacuum filtration and three washes of 300 μL of ice-cold binding buffer. 50 μL of UltimaGold (Packard) scintillant were added and counted for ^125I, in a Wallac MicroBeta Trilux. Non-specific binding was defined by 300 nM human NPY for all receptors except the Y4 subtypes; 100 nM human PP was used for the human Y4 and 100 nM rat PP for the rat Y4.

human Y4 receptor = molecular target: T2, human Y4 receptor (Homo sapiens, UniProt P50391); assay: Radioligand binding to membranes, cloned human Y4 receptor; details: hNPY-4 (one cell for Y1, Y2, Y4), read-out: Ki, nM hNPY-1,2,4
T2 construct: expressed in transfected cells; host or cells: mouse fibroblast LM(tk-) cells, e.g. L-hY4-3 (ATCC CRL-11779)
Method: as §1, §2, §3, §4

human Y2 receptor = molecular target: T3, human Y2 receptor (Homo sapiens, UniProt P49146); assay: Radioligand binding to membranes, cloned human Y2 receptor
T3 sequence (P49146 1-381): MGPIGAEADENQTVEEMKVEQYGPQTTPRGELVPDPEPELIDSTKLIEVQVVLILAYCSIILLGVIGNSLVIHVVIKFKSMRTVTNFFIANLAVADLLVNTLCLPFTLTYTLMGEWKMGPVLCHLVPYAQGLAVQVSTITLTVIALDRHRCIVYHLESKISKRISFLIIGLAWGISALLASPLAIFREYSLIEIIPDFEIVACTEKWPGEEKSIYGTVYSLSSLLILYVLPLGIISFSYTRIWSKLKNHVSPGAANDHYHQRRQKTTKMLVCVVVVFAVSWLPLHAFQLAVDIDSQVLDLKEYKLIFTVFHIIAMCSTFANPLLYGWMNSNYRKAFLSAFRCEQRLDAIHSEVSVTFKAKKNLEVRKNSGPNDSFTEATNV
Method: as §1, §2, §3, §4

human Y5 receptor = molecular target: T4, human Y5 receptor (Homo sapiens, UniProt Q15761); assay: Radioligand binding to membranes, cloned human Y5 receptor; details: read-out: Ki, nM hNPY-5
T4 construct: expressed in transfected cells; host or cells: mouse fibroblast LM(tk-) cells, e.g. L-hY5-7 (ATCC CRL-11995)
T4 sequence (Q15761 1-445): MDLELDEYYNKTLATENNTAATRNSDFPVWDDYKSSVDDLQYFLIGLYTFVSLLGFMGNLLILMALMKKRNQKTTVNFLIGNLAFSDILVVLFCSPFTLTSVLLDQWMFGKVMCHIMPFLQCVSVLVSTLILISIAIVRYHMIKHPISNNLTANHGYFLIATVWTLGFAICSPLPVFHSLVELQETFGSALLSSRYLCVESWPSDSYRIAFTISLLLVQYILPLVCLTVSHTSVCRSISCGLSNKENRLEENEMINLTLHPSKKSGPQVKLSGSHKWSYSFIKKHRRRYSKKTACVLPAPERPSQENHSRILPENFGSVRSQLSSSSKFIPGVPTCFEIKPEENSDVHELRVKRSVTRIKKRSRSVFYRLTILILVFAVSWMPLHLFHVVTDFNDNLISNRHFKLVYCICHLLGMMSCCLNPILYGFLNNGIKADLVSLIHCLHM
Method: as §1, §2, §3, §4

T2 sequence (P50391 whole entry): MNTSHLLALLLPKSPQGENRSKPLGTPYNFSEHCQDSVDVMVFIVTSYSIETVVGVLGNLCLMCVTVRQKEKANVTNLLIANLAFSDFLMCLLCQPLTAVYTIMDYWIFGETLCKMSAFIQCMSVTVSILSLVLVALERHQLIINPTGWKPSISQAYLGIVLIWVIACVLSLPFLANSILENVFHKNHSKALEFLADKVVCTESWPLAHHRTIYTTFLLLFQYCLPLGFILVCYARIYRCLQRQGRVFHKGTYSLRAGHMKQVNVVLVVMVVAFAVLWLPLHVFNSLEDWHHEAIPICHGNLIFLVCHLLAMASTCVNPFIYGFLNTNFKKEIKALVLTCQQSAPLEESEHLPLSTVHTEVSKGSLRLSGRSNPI

CCN(CC)S(=O)(=O)NCCCCCNc1nc(-c2ccccn2)cs1 [Example 59, 2-(5-Diethylaminosulfonylamino)pentylamino-4-(2-pyridyl)-thiazole hydrogen chloride]
Ki (human Y1 receptor; Table 5): > 10000 nM
Ki (human Y4 receptor; Table 5): > 10000 nM
Ki (human Y2 receptor): > 10 µM

O=S(=O)(NCCCCCNc1nc(-c2cccnc2)cs1)c1ccccc1F [Example 70, 2-(5-(2-Fluorophenyl)sulfonylamino)pentylamino-4-(3-pyridyl)thiazole hydrogen chloride]
Ki (human Y1 receptor; Table 5): > 10000 nM
Ki (human Y4 receptor; Table 5): > 10000 nM
Ki (human Y5 receptor; Table 5): 21 nM
Ki (human Y2 receptor): > 10 µM

Cc1noc(C)c1S(=O)(=O)NCCCCCNc1nc(-c2cccnc2)cs1 [Example 71, 2-(5-(3,5-Dimethylisoxazol-4-yl)sulfonylamino)pentylamino-4-(3-pyridyl)thiazole hydrogen chloride]
Ki (human Y1 receptor; Table 5): > 10000 nM
Ki (human Y4 receptor; Table 5): > 10000 nM
Ki (human Y5 receptor; Table 5): 37 nM
Ki (human Y2 receptor): > 10 µM

COc1ccc(C)cc1S(=O)(=O)NCCCCCNc1nc(-c2cccnc2)cs1 [Example 72, 2-(5-(2-Methoxy-5-methyl)phenylsulfonylamino)pentylamino-4-(3-pyridyl)thiazole hydrogen chloride]
Ki (human Y1 receptor; Table 5): > 10000 nM
Ki (human Y4 receptor; Table 5): > 10000 nM
Ki (human Y5 receptor; Table 5): 50 nM
Ki (human Y2 receptor): > 10 µM

O=S(=O)(NCCCCCNc1nc(-c2ccncc2)cs1)c1ccccc1F [Example 73, 2-(5-(2-Fluoro)phenylsulfonylamino)pentylamino-4-(4-pyridyl)thiazole hydrogen chloride]
Ki (human Y1 receptor; Table 5): > 10000 nM
Ki (human Y4 receptor; Table 5): > 10000 nM
Ki (human Y5 receptor; Table 5): 204 nM
Ki (human Y2 receptor): > 10 µM

Cc1noc(C)c1S(=O)(=O)NCCCCCNc1nc(-c2ccncc2)cs1 [Example 74, 2-(5-(3,5-Dimethylisoxazol-4-yl)sulfonylamino)pentylamino-4-(4-pyridyl)thiazole hydrogen chloride]
Ki (human Y1 receptor; Table 5): > 10000 nM
Ki (human Y4 receptor; Table 5): > 10000 nM
Ki (human Y5 receptor; Table 5): 745 nM
Ki (human Y2 receptor): > 10 µM

COc1ccc(C)cc1S(=O)(=O)NCCCCCNc1nc(-c2ccncc2)cs1 [Example 75, 2-(5-(2-Methoxy-5-methyl)phenylsulfonylamino)pentylamino-4-(4-pyridyl)thiazole hydrogen chloride]
Ki (human Y1 receptor; Table 5): > 10000 nM
Ki (human Y4 receptor; Table 5): > 10000 nM
Ki (human Y5 receptor; Table 5): 5 nM
Ki (human Y2 receptor): > 10 µM

COc1ccc(C)cc1S(=O)(=O)NCCCCCNc1nc(-c2cc3ccccc3s2)cs1 [Example 76, N1-{5-[(4-Benzo[b]thiophen-2-yl-1,3-thiazol-2-yl)amino]-pentyl}-2-methoxy-5-methyl-1-benzenesulfonamide]
Ki (human Y1 receptor; Table 5): > 10000 nM
Ki (human Y4 receptor; Table 5): > 10000 nM
Ki (human Y5 receptor; Table 5): 11 nM
Ki (human Y2 receptor): > 10 µM

COc1ccc(C)cc1S(=O)(=O)NCCCCCNc1nc(-c2sc3ccc(Cl)cc3c2C)cs1 [Example 77, N1-(5-{[4-(5-Chloro-3-methylbenzo[b]thiophen-2-yl)-1,3-thiazol-2-yl]amino}pentyl)-2-methoxy-5-methyl-1-benzenesulfonamide]
Ki (human Y1 receptor; Table 5): > 10000 nM
Ki (human Y4 receptor; Table 5): > 10000 nM
Ki (human Y5 receptor; Table 5): 297 nM
Ki (human Y2 receptor): > 10 µM

COc1ccc(C)cc1S(=O)(=O)NCCCCCNc1nc(-c2cc(-c3ccccc3)on2)cs1 [Example 78]
Ki (human Y1 receptor; Table 5): > 10000 nM
Ki (human Y4 receptor; Table 5): > 10000 nM
Ki (human Y5 receptor; Table 5): 891 nM
Ki (human Y2 receptor): > 10 µM

COc1ccc(C)cc1S(=O)(=O)NCCCCCNc1nc(-c2ccsc2)cs1 [Example 79, N1-(5-{[4-(3-Thienyl)-1,3-thiazol-2-yl]amino}pentyl)-2-methoxy-5-methyl-1-benzenesulfonamide]
Ki (human Y1 receptor; Table 5): > 10000 nM
Ki (human Y4 receptor; Table 5): > 10000 nM
Ki (human Y5 receptor; Table 5): 545 nM
Ki (human Y2 receptor): > 10 µM

COc1ccc(C)cc1S(=O)(=O)NCCCCCNc1nc(-c2ccn(S(=O)(=O)c3ccccc3)c2)cs1 [Example 80, N1-[5-({4-[1-(Phenylsulfonyl)-1H-3-pyrrolyl]-1,3-thiazol-2-yl}amino)pentyl]-2-methoxy-5-methyl-1-benzenesulfonamide]
Ki (human Y1 receptor; Table 5): > 10000 nM
Ki (human Y4 receptor; Table 5): > 10000 nM
Ki (human Y5 receptor; Table 5): 40 nM
Ki (human Y2 receptor): > 10 µM

O=S(=O)(NC[C@H]1CC[C@H](Nc2nc(-c3cc(-c4ccccc4)no3)cs2)CC1)c1cccc2cccnc12 [Example 81, trans-N8-[(4-{[4-(3-Phenyl-5-isoxazolyl)-1,3-thiazol-2-yl]amino}cyclohexyl)methyl]-8-quinolinesulfonamide]
Ki (human Y1 receptor; Table 5): > 10000 nM
Ki (human Y4 receptor; Table 5): > 10000 nM
Ki (human Y5 receptor; Table 5): 155 nM
Ki (human Y2 receptor): > 10 µM

CN(C)S(=O)(=O)NCCCCCNc1nc(-c2ccsc2)cs1 [Example 82, N,N-Dimethyl-N′-(5-{[4-(3-Thienyl)-1,3-thiazol-2-yl]amino}pentyl)sulfamide]
Ki (human Y1 receptor; Table 5): > 10000 nM
Ki (human Y4 receptor; Table 5): > 10000 nM
Ki (human Y5 receptor; Table 5): 8.3 nM
Ki (human Y2 receptor): > 10 µM

O=S(=O)(NCCCCCCNc1nc2c(s1)CCSc1ccccc1-2)c1cccs1 [Example 106]
Ki (human Y1 receptor; Table 6): > 10000 nM
Ki (human Y4 receptor; Table 6): > 10000 nM
Ki (human Y5 receptor; Table 6): 2.9 nM
Ki (human Y2 receptor): > 10 µM

CCS(=O)(=O)NC[C@H]1CC[C@H](Nc2nc3c(s2)CCSc2ccccc2-3)CC1 [Example 107, N1-{[4-(4,5-Dihydrobenzo[2,3]thiepino[4,5-d][1,3]thiazol-2-ylamino)cyclohexyl]methyl}-1-ethanesulfonamide]
Ki (human Y1 receptor; Table 6): > 10000 nM
Ki (human Y4 receptor; Table 6): > 10000 nM
Ki (human Y5 receptor; Table 6): 5.1 nM
Ki (human Y2 receptor): > 10 µM

CCS(=O)(=O)NCCCCCNc1nc2c(s1)CCSc1ccccc1-2 [Example 109, N1-[5-(4,5-Dihydrobenzo[2,3]thiepino[4,5-d][1,3]thiazol-2-ylamino)pentyl]-1-ethanesulfonamide]
Ki (human Y1 receptor; Table 6): > 10000 nM
Ki (human Y4 receptor; Table 6): > 10000 nM
Ki (human Y5 receptor; Table 6): 3.7 nM
Ki (human Y2 receptor): > 10 µM

O=S(=O)(NCCCCCNc1nc2c(s1)CCSc1ccccc1-2)c1cccs1 [Example 110, N2-[5-(4,5-Dihydrobenzo[2,3]thiepino[4,5-d][1,3]thiazol-2-ylamino)pentyl]-2-thiophenesulfonamide]
Ki (human Y1 receptor; Table 6): > 10000 nM
Ki (human Y4 receptor; Table 6): > 10000 nM
Ki (human Y5 receptor; Table 6): 2.6 nM
Ki (human Y2 receptor): > 10 µM

O=S(=O)(NC[C@H]1CC[C@H](Nc2nc3c(s2)CCSc2ccccc2-3)CC1)c1cccc2nsnc12 [Example 118, N4-{[4-(4,5-Dihydrobenzo[2,3]thiepino[4,5-d][1,3]thiazol-2-ylamino)cyclohexyl]methyl}-2,1,3-benzothiadiazole-4-sulfonamide]
Ki (human Y1 receptor; Table 6): > 10000 nM
Ki (human Y4 receptor; Table 6): > 10000 nM
Ki (human Y5 receptor; Table 6): 2.4 nM
Ki (human Y2 receptor): > 10 µM

Cc1cccc(F)c1S(=O)(=O)NC[C@H]1CC[C@H](Nc2nc3c(s2)CCSc2ccccc2-3)CC1 [Example 158, N1-{[4-(4,5-Dihydrobenzo[2,3]thiepino[4,5-d][1,3]thiazol-2-ylamino)cyclohexyl]methyl}-2-fluoro-6-methyl-1-benzenesulfonamide]
Ki (human Y1 receptor; Table 6): > 10000 nM
Ki (human Y4 receptor; Table 6): > 10000 nM
Ki (human Y5 receptor; Table 6): 8.2 nM
Ki (human Y2 receptor): > 10 µM

CS(=O)(=O)NCCCCCNc1nc2c(s1)CCSc1ccc(F)cc1-2 [Example 159, N-{5-[(9-Fluoro-4,5-dihydrobenzo[2,3]thiepino[4,5-d][1,3]thiazol-2-yl)amino]pentyl}methanesulfonamide]
Ki (human Y1 receptor; Table 6): > 10000 nM
Ki (human Y4 receptor; Table 6): > 10000 nM
Ki (human Y5 receptor; Table 6): 6.1 nM
Ki (human Y2 receptor): > 10 µM

CC(C)N(C=O)[C@H]1CC[C@H](CNc2nc3c(s2)CCSc2ccc(F)cc2-3)CC1 [Example 166, N-(4-[(9-Fluoro-4,5-dihydrobenzo[2,3]thiepino[4,5-d][1,3]thiazol-2-yl)amino]methylcyclohexyl)-N-isopropylformamide]
Ki (human Y5 receptor; Table 6): 6 nM
